Data from ChEMBL document CHEMBL4043168, “The design and SAR of a novel series of 2-aminopyridine based LRRK2 inhibitors” (Bioorg Med Chem Lett, 2017).
Converted amounts (≈) assume the structure as drawn.

What was measured:
[1] = biological target: Serine/threonine-protein kinase Nek9 (Homo sapiens) (UniProt Q8TD19); assay: Inhibition of NEK9 conserved Lys2 (DIKTLNIFLTK) in human PBMC at 0.1 uM
[2] = biological target: Diacylglycerol kinase alpha (Homo sapiens) (UniProt P23743); assay: Inhibition of DGKA labeling at activation Loop (IDPVPNTHPLLVFVNPKSGGK) in human PBMC at 1 uM
[3] = biological target: T1, Serine/threonine-protein kinase LATS1 (Homo sapiens) (UniProt O95835); assay: Inhibition of LATS1 conserved Lys1 (ALYATKTLR) in human PBMC at 0.1 uM
T1 sequence (whole entry): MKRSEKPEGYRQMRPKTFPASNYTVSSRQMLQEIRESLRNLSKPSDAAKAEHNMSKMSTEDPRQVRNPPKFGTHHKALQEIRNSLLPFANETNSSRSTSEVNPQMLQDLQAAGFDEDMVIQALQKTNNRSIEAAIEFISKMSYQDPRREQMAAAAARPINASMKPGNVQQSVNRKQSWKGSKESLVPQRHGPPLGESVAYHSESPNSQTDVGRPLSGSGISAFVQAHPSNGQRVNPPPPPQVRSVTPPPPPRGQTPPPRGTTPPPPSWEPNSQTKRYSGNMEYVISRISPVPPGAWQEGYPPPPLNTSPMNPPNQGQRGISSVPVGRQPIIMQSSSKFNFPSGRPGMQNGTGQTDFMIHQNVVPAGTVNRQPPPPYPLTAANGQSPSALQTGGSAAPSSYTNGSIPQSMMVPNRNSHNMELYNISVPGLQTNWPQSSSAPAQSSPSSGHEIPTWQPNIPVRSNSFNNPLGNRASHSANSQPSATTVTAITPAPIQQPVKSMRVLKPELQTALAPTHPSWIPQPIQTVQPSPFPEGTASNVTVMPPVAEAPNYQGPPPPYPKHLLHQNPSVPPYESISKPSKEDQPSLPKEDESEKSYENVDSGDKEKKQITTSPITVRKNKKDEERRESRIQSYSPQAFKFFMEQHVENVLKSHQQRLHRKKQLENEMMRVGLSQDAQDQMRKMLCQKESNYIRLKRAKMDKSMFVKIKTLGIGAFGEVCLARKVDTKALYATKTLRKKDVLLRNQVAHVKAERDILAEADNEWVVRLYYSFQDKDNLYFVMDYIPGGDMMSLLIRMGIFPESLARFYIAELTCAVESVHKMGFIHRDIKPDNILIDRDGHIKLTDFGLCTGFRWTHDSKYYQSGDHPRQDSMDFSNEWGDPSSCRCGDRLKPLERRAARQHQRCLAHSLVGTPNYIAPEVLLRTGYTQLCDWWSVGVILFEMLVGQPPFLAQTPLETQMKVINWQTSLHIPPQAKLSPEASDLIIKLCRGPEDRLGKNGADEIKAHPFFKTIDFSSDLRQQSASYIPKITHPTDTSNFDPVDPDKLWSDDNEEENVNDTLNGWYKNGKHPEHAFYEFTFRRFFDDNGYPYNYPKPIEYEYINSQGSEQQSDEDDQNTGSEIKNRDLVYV

[4] = biological target: Kinase suppressor of Ras 2 (Homo sapiens) (UniProt Q6VAB6); assay: Inhibition of KSR2 activation Loop (SKNVFYDNGK) in human PBMC at 1 uM
[5] = biological target: Interleukin-1 receptor-associated kinase 1 (Homo sapiens) (UniProt P51617); assay: Inhibition of IRAK1 conserved Lys2 (AIQFLHQDSPSLIHGDIKSSNVLLDER) in human PBMC at 1 uM
[6] = biological target: Calcium/calmodulin-dependent protein kinase type II subunit gamma (Homo sapiens) (UniProt Q13555); assay: Inhibition of CaMK2g labeling at conserved Lys1 (TSTQEYAAKIINTK) in human PBMC at 0.1 uM
[7] = biological target: Ribosomal protein S6 kinase alpha-3 (Homo sapiens) (UniProt P51812); assay: Inhibition of RSK2 domain1 activation Loop (LTDFGLSKESIDHEKK) in human PBMC at 1 uM
[8] = biological target: RAC-alpha serine/threonine-protein kinase (Homo sapiens) (UniProt P31749); assay: Inhibition of AKT1 labeling at ATP binding site (GTFGKVILVK) in human PBMC at 1 uM
[9] = biological target: Cyclin-dependent kinase 2 (Homo sapiens) (UniProt P24941); assay: Inhibition of CDK2 labeling at conserved Lys2 (DLKPQNLLINTEGAIK) in human PBMC at 1 uM
[10] = biological target: Ribosomal protein S6 kinase alpha-1 (Homo sapiens) (UniProt Q15418); assay: Inhibition of RSK1 domain1 activation Loop (LTDFGLSKEAIDHEKK) in human PBMC at 0.1 uM
[11] = biological target: Serine/threonine-protein kinase WNK1 (Homo sapiens) (UniProt Q9H4A3); assay: Inhibition of Wnk1 ATP binding site (GSFKTVYK) in human PBMC at 0.1 uM
[12] = biological target: Tyrosine-protein kinase JAK1 (Homo sapiens) (UniProt P23458); assay: Inhibition of JAK1 domain1 (QLASALSYLEDKDLVHGNVCTKNLLLAR) in human PBMC at 1 uM
[13] = biological target: Protein kinase C beta type (Homo sapiens) (UniProt P05771); assay: Inhibition of PKCb conserved Lys2 (DLKLDNVMLDSEGHIK) in human PBMC at 1 uM
[14] = biological target: Ribosomal protein S6 kinase alpha-3 (Homo sapiens) (UniProt P51812); assay: Inhibition of RSK2 conserved Lys2 (DLKPENILLDEEGHIK) in human PBMC at 0.1 uM
[15] = biological target: Tyrosine-protein kinase BTK (Homo sapiens) (UniProt Q06187); assay: Inhibition of BTK labeling at activation Loop (YVLDDEYTSSVGSKFPVR) in human PBMC at 0.1 uM
[16] = biological target: Mitogen-activated protein kinase 9 (Homo sapiens) (UniProt P45984); assay: Inhibition of JNK2 conserved Lys2 (DLKPSNIVVK) in human PBMC at 1 uM
[17] = Aqueous solubility of the compound in pH 7.4; format: physicochemical; details: aqueous medium
[18] = biological target: Mitogen-activated protein kinase kinase kinase 4 (Homo sapiens) (UniProt Q9Y6R4); assay: Inhibition of MAP3K4 conserved Lys2 (DIKGANIFLTSSGLIK) in human PBMC at 1 uM
[19] = biological target: Mitogen-activated protein kinase kinase kinase kinase 5 (Homo sapiens) (UniProt Q9Y4K4); assay: Inhibition of KHS1 conserved Lys1 (NVHTGELAAVKIIK) in human PBMC at 1 uM
[20] = biological target: Cyclin-dependent kinase 2 (Homo sapiens) (UniProt P24941); assay: Inhibition of CDK2 labeling at conserved Lys2 (DLKPQNLLINTEGAIK) in human PBMC at 0.1 uM
[21] = biological target: Tyrosine-protein kinase ABL1 (Homo sapiens) (UniProt P00519); assay: Inhibition of ABL labeling at activation Loop (LMTGDTYTAHAGAKFPIK) in human PBMC at 0.1 uM
[22] = biological target: Kinase suppressor of Ras 1 (Homo sapiens) (UniProt Q8IVT5); assay: Inhibition of KSR1 activation Loop (SKNVFYDNGK) in human PBMC at 0.1 uM

Ribosomal protein S6 kinase alpha-3 (Homo sapiens), sequence (P51812 whole entry, the tested form may be a part): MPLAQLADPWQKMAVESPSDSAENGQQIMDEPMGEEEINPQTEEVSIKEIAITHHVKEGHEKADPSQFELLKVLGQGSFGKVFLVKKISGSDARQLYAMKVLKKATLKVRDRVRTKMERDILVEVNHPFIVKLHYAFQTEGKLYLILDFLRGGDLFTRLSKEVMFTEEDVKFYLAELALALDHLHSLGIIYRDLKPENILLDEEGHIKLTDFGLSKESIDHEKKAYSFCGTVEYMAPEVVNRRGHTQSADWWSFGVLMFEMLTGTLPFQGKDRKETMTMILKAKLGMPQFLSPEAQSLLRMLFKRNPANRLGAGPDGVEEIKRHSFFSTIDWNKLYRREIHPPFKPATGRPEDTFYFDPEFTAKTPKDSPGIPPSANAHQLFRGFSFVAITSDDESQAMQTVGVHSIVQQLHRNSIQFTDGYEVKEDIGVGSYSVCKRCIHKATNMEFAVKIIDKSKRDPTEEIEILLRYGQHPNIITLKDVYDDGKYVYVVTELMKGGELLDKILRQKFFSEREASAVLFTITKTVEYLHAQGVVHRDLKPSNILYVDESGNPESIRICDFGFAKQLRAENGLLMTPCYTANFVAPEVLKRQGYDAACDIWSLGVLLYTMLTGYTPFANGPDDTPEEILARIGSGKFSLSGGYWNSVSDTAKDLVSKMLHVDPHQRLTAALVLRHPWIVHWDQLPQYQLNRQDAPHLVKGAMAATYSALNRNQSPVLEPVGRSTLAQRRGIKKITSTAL
Ribosomal protein S6 kinase alpha-1 (Homo sapiens), sequence (Q15418 whole entry, the tested form may be a part): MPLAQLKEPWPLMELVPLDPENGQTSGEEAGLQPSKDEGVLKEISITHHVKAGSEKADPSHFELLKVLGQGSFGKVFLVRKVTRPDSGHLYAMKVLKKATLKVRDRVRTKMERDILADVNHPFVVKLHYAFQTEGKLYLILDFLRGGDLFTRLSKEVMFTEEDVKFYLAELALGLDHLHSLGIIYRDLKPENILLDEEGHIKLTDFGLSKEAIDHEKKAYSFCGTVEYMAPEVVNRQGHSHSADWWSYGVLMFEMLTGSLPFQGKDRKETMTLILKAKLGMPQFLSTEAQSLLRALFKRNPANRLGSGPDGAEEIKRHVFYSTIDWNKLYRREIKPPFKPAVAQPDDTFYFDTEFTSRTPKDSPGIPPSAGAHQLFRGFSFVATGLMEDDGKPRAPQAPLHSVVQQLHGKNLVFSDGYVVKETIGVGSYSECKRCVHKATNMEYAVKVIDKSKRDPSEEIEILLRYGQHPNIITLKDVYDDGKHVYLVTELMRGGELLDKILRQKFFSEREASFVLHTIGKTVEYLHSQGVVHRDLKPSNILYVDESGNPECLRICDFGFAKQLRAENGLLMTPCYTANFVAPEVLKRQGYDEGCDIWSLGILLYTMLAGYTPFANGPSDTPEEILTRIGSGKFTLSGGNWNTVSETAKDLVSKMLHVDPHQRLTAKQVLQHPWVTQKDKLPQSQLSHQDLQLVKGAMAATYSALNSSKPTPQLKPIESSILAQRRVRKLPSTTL
Serine/threonine-protein kinase Nek9 (Homo sapiens), sequence (Q8TD19 whole entry): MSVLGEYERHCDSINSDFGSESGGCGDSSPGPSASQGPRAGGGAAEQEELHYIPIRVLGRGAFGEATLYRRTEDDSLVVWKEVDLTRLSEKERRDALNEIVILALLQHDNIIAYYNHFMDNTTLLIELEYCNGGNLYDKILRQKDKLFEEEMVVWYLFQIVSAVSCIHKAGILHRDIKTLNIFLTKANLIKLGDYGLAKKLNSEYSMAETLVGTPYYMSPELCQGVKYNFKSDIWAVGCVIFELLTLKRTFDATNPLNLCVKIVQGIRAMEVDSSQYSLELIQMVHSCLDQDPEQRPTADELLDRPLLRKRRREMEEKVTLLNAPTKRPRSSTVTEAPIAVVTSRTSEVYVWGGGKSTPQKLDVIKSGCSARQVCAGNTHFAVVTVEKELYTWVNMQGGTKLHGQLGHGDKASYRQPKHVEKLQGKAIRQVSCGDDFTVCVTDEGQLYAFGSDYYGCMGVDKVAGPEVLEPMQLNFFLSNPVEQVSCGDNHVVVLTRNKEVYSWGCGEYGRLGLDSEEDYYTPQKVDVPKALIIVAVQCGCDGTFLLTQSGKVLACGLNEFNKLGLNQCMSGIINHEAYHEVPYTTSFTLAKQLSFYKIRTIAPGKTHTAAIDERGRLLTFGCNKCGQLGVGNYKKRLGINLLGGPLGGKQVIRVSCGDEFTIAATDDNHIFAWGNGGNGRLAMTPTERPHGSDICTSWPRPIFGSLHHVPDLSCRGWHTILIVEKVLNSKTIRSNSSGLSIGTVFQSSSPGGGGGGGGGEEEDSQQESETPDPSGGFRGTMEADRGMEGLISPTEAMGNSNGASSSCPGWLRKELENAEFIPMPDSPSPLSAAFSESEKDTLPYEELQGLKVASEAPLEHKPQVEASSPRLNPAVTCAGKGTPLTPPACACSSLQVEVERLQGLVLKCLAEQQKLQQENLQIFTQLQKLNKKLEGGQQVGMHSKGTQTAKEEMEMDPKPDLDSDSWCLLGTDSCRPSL
Mitogen-activated protein kinase kinase kinase 4 (Homo sapiens), sequence (Q9Y6R4 whole entry): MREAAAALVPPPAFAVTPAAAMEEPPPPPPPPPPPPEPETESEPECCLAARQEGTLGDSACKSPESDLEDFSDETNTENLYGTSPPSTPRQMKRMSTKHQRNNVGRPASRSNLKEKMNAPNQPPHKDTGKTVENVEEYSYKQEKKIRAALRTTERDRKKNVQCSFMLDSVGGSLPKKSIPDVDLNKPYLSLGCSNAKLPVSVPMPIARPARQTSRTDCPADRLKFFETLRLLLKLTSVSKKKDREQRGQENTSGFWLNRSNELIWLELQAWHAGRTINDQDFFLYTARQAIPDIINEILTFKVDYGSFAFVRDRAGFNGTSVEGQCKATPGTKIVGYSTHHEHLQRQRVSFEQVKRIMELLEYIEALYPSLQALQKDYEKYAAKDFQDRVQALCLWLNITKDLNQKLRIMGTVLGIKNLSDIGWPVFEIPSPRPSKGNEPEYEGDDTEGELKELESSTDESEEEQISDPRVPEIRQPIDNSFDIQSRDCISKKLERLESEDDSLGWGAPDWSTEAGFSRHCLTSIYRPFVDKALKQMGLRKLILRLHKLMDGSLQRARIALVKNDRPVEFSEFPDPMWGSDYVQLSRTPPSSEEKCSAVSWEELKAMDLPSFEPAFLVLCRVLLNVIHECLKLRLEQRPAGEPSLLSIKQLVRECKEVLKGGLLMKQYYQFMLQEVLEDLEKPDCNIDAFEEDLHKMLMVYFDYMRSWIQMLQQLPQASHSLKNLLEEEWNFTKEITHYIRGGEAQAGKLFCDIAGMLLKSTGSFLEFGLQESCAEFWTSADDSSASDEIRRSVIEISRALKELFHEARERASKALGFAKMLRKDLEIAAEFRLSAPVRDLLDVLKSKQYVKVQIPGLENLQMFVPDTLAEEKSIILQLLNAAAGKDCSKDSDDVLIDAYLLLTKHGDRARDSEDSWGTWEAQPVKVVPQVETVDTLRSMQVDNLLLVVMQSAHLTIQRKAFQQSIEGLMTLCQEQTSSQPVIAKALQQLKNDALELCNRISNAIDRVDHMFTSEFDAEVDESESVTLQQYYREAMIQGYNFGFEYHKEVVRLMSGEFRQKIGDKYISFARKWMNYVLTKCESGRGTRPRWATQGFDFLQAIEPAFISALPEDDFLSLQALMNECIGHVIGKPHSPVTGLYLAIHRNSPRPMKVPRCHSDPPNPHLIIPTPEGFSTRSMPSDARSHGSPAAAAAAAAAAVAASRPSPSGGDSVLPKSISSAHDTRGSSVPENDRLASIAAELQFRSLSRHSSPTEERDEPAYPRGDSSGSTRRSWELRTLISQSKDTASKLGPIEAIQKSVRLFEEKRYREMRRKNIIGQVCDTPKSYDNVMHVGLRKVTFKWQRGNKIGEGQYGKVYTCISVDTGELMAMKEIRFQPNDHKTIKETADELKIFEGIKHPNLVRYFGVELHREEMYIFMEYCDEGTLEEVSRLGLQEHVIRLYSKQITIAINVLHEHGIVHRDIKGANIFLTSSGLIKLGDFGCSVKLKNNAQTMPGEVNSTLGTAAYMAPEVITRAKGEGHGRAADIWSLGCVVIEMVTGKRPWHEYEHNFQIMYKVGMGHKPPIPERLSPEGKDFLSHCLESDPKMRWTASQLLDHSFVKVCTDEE
Kinase suppressor of Ras 2 (Homo sapiens), sequence (Q6VAB6 whole entry): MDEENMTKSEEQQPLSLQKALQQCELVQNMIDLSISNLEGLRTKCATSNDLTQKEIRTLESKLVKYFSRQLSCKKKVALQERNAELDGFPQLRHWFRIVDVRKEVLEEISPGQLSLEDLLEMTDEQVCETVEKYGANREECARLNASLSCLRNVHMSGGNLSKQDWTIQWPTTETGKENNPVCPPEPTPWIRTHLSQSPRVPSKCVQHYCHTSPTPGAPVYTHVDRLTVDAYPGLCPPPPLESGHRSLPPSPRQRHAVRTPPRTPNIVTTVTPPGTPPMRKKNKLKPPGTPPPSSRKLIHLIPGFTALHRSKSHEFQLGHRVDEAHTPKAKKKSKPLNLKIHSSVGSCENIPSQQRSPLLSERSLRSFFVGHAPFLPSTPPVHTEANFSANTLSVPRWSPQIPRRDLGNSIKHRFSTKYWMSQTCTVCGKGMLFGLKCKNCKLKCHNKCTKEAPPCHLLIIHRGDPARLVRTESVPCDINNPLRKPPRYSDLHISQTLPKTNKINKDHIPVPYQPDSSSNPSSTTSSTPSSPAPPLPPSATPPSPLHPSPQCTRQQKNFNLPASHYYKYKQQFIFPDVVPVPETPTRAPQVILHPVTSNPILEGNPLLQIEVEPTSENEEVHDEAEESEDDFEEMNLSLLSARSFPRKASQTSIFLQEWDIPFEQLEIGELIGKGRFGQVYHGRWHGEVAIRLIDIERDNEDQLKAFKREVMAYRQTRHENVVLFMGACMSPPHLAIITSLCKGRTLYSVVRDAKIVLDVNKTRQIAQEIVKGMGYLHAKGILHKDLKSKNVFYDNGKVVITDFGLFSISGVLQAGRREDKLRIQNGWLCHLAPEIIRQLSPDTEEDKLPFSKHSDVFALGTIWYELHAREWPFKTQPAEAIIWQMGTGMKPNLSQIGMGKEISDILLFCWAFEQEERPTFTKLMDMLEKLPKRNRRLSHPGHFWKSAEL

## CC(C)n1cc(-c2cc(-c3ccc(CN4CCOCC4)cc3)cnc2N)nn1
[1]
  inhibition: 26.5%
[2]
  inhibition: -9.6%
[3]
  inhibition: 23.1%
[4]
  inhibition: 20.1%
[5]
  inhibition: 17.3%
[6]
  inhibition: -4.5%
[7]
  inhibition: 22%
[8]
  inhibition: 27.4%
[9]
  inhibition: 16.8%
[10]
  inhibition: 17.2%
[11]
  inhibition: 18.3%
[12]
  inhibition: 1.8%
[13]
  inhibition: -7.4%
[14]
  inhibition: 11.8%
[15]
  inhibition: 14.2%
[16]
  inhibition: 23.9%
[17]
  solubility: 36 µg/mL (≈ 95.1 µM)
[18]
  inhibition: -0.5%
[19]
  inhibition: 3.8%
[20]
  inhibition: 19.2%
[21]
  inhibition: -5.2%
[22]
  inhibition: 20.4%
